These results are taken from patent US5252592A, “Tetrazoleacetic acid derivatives having aldose reductase inhibitory activity” (Wakamoto Pharmaceutical Co., Ltd., priority 1991, dated 1993).

The target in the assay is T1, aldose reductase (Rattus norvegicus, UniProt P07943).
T1 construct: their crystalline lenses were immediately removed and stored at -80° C; The lenses were homogenized; from tissue; host or cells: crystalline lens of six-week-old male SD rats (30,000 rpm supernatant, dialysed)
Nature of the assay: Test for Examining Aldose Reductase Inhibitory Effect. Conditions: rat lens aldose reductase; DL-glyceraldehyde 10 mM, NADPH 0.15 mM, pH 5.2, 30° C., 5 minutes; least-square regression of log dose-response curve. Format: biochemical, male SD rats (crystalline lenses). How it is done:
Six-weeks-old male SD rats were anesthetized with ether and killed. Then their crystalline lenses were immediately removed and stored at -80° C. […] The resulting supernatant was dialyzed overnight against 0.05M sodium chloride solution to obtain an aldose reductase solution. All operations were conducted at 4° C. and the enzyme solution was stored at -80° C.
More specifically, 0.1 ml of DL-glyceraldehyde (final concentration: 10 mM) was added to 0.9 ml of 100 mM sodium potassium phosphate buffer (pH 5.2) which contained lithium sulfate (final concentration: 400 mM), reduced nicotinamide adenine dinucleotide phosphate (final concentration: 0.15 mM), the enzyme solution, and the compound to be evaluated (final concentration: 10^-6 M, 10^-7 M or 10^-8 M), and then the reaction was conducted at 30° C. for 5 minutes. During the reaction, the change in the absorbance at 340 nm with time was monitored.
The maximum reducing rate of the absorbance […] during the reaction was determined. By subtracting, from this value, the maximum reducing rate (U0) at 340 nm of the reaction solution before the addition of the substrate (DL-glyceraldehyde), the reaction rate (V=U-U0) was calculated as a true reaction rate in the presence of the compound to be tested.
The same procedure was repeated except for the absence of the compound to be tested. A true reaction rate (V0) in case the enzyme was not inhibited was calculated (V0 =U'-U0 '). The aldose reductase inhibitory activity of the test compounds was determined according to the following formula:
Rate of Inhibition (%)=(V0 -V)/V0 ×100
The concentration of inhibitor giving 50% inhibitation of enyzme activity […] was estimated from the least-square regression line of the log dose-response curve.
As usually defined, the IC50 is the concentration at which inhibition is half-maximal. Read a low IC50 as higher potency. In turn, `O=C(O)Cn1nnnc1-c1cccc2ccccc12` [Example 3 - 2, [5-(1-naphthyl)tetrazol-1-yl]acetic acid] gave a half-maximal inhibitory concentration (IC50) of 25 nM.

In turn, `O=C(O)Cn1nnnc1-c1ccc2ccccc2c1` [Example 3 - 1] registered a concentration for half-maximal inhibition (IC50) of 50 nM.

`COc1ccc2c(-c3nnnn3CC(=O)O)cccc2c1C(F)(F)F` [Example 3 - 4, [5-[1-(6-methoxy-5-trifluoromethyl)naphthyl]tetrazol-1-yl]acetic acid] gave a concentration for half-maximal inhibition (IC50) of 130 nM. This IC50 lies about 2.6-fold higher than the previous one.

Consider `COc1ccc2cc(-c3nnnn3CC(=O)O)ccc2c1` [Example 3 - 3], for which it took 19 nM to reach half-maximal inhibition (IC50).
